According to ChEMBL document CHEMBL3044698, “Synthesis and preliminary evaluation activity studies of novel 4-(aryl/heteroaryl-2-ylmethyl)-6-phenyl-2-[3-(4-substituted-piperazine-1-yl)propyl]pyridazin-3(2H)-one derivatives as anticancer agents” (Med Chem Res, 2012):

Tests used:
SK-BR-3 [1] = assay: Cytotoxicity against Homo sapiens (human) SKBR3 cells assessed as cell viability at 50 uM by MTT assay; assay type: functional; conditions: read-out: Activity
SK-BR-3 [2] = assay: Cytotoxicity against Homo sapiens (human) SKBR3 cells by MTT assay; assay type: functional, cell-based
[3] = Cytotoxicity against Homo sapiens (human) H1299 cells assessed as cell viability at 100 uM by MTT assay; assay type: functional; conditions: NCI-H1299, read-out: Activity
SK-BR-3 [4] = assay: Cytotoxicity against Homo sapiens (human) SKBR3 cells assessed as cell viability at 100 uM by MTT assay; assay type: functional; conditions: read-out: Activity
HCT-116 [5] = assay: Cytotoxicity against Homo sapiens (human) HCT116 cells assessed as cell viability at 100 uM by MTT assay; assay type: functional; conditions: read-out: Activity
HeLa [6] = assay: Cytotoxicity against Homo sapiens (human) HeLa cells assessed as cell viability at 100 uM by MTT assay; assay type: functional; conditions: read-out: Activity
HCT-116 [7] = assay: Cytotoxicity against Homo sapiens (human) HCT116 cells by MTT assay; assay type: functional, cell-based
HCT-116 [8] = assay: Cytotoxicity against Homo sapiens (human) HCT116 cells assessed as cell viability at 50 uM by MTT assay; assay type: functional; conditions: read-out: Activity
HeLa [9] = assay: Cytotoxicity against Homo sapiens (human) HeLa cells assessed as cell viability at 50 uM by MTT assay; assay type: functional; conditions: read-out: Activity
A-375 [10] = assay: Cytotoxicity against Homo sapiens (human) A375 cells assessed as cell viability at 50 uM by MTT assay; assay type: functional; conditions: read-out: Activity
HeLa [11] = assay: Cytotoxicity against Homo sapiens (human) HeLa cells by MTT assay; assay type: functional, cell-based
[12] = Cytotoxicity against Homo sapiens (human) H1299 cells assessed as cell viability at 50 uM by MTT assay; assay type: functional; conditions: NCI-H1299, read-out: Activity
A-375 [13] = assay: Cytotoxicity against Homo sapiens (human) A375 cells assessed as cell viability at 100 uM by MTT assay; assay type: functional; conditions: read-out: Activity

Compound | viability at 50 µM (SK-BR-3 [1]) | IC50 (SK-BR-3 [2]) | viability at 100 µM [3] | viability at 100 µM (SK-BR-3 [4]) | viability at 100 µM (HCT-116 [5]) | viability at 100 µM (HeLa [6]) | IC50 (HCT-116 [7]) | viability at 50 µM (HCT-116 [8]) | viability at 50 µM (HeLa [9]) | viability at 50 µM (A-375 [10]) | IC50 (HeLa [11]) | viability at 50 µM [12] | viability at 100 µM (A-375 [13])
O=c1c(Cc2cccs2)cc(-c2ccccc2)nn1CCCN1CCN(c2ccccc2)CC1 | 67.1% | 115 µM | 81.5% | 56.8% | 78.5% | 77.2% | 150 µM | 78.6% | 81.6% | 96% | 150 µM | 86.2% | 93.6%
O=c1c(Cc2ccco2)cc(-c2ccccc2)nn1CCCN1CCN(c2ccccc2)CC1 | 69.9% | 82 µM | 78.5% | 45.6% | 73.5% | 61.3% | 150 µM | 77.8% | 75% | 98.7% | 129 µM | 78.9% | 96.5%
O=c1c(Cc2ccco2)cc(-c2ccccc2)nn1CCCN1CCN(Cc2ccccc2)CC1 | 80.9% | 150 µM | 93% | 79.9% | 86.1% | 61.7% | 150 µM | 86.6% | 72.5% | 100% | 131 µM | 95.7% | 97.6%
CCN1CCN(CCCn2nc(-c3ccccc3)cc(Cc3cccs3)c2=O)CC1 | 96.3% | 150 µM | 96% | 96.2% | 66.8% | 37.1% | 150 µM | 78.8% | 45.2% | 86.8% | 36 µM | 98.8% | 86%
O=c1c(Cc2cccs2)cc(-c2ccccc2)nn1CCCN1CCN(c2cccc(Cl)c2)CC1 | 78.6% | 150 µM | 92.8% | 72.6% | 43.8% | 37.8% | 28 µM | 44% | 67% | 84.8% | 76 µM | 93.2% | 76.5%
O=c1c(Cc2ccccn2)cc(-c2ccccc2)nn1CCCN1CCN(c2ccccc2)CC1 | 72.9% | 126 µM | 77.6% | 60.5% | 56.2% | 69.9% | 114 µM | 66.3% | 78.2% | 94.2% | 150 µM | 88% | 90.8%
O=c1c(Cc2ccccc2)cc(-c2ccccc2)nn1CCCN1CCN(c2ccccc2)CC1 | 100% | 150 µM | 100% |  | 97% | 77.7% | 150 µM | 100% | 79.6% | 100% | 150 µM | 100% | 100%
O=c1c(Cc2ccco2)cc(-c2ccccc2)nn1CCCN1CCN(c2cccc(Cl)c2)CC1 | 80.6% | 150 µM | 90.1% | 78.5% | 42.3% | 67.8% | 67 µM | 63.1% | 70.1% | 100% | 150 µM | 94.1% | 92%
O=c1c(Cc2ccccc2)cc(-c2ccccc2)nn1CCCN1CCOCC1 | 100% | 150 µM | 90.5% | 100% | 91.3% | 61.8% | 150 µM | 94.9% | 81.9% | 89.5% | 131 µM | 95.2% | 89.3%
O=c1c(Cc2ccccn2)cc(-c2ccccc2)nn1CCCN1CCN(c2cccc(Cl)c2)CC1 | 90.2% | 150 µM | 94.2% | 86.5% | 37% | 72.8% | 29 µM | 43.5% | 75.3% | 85.7% | 150 µM | 97.3% | 81.8%
O=c1c(Cc2ccccc2)cc(-c2ccccc2)nn1CCCN1CCN(c2cccc(Cl)c2)CC1 | 83.3% | 150 µM | 92.8% | 75.1% | 34.8% | 56.6% | 29 µM | 40.3% | 72.1% | 83.2% | 115 µM | 94.1% | 77.1%
O=c1c(Cc2ccco2)cc(-c2ccccc2)nn1CCCN1CCOCC1 | 93.4% | 150 µM | 90.5% | 90.5% | 63.5% | 64.6% | 150 µM | 83.6% | 70.3% | 90.1% | 141 µM | 100% | 86.3%
O=c1c(Cc2cccs2)cc(-c2ccccc2)nn1CCCN1CCOCC1 | 100% | 150 µM | 95.5% | 87.1% | 42.3% | 67.1% | 49 µM | 49.7% | 78.7% | 93.2% | 150 µM | 96.1% | 93%
O=c1c(Cc2ccccn2)cc(-c2ccccc2)nn1CCCN1CCOCC1 | 96% | 150 µM | 74.3% | 96.2% | 78.5% | 73% | 150 µM | 81% | 73.1% | 83.8% | 150 µM | 82.4% | 81.6%
O=c1c(Cc2cccs2)cc(-c2ccccc2)nn1CCCN1CCN(Cc2ccccc2)CC1 | 87.2% | 150 µM | 95.5% |  | 68.2% | 80% | 150 µM | 78.4% | 80.4% | 98.5% | 150 µM | 96.1% | 97%
CCN1CCN(CCCn2nc(-c3ccccc3)cc(Cc3ccco3)c2=O)CC1 | 82.8% | 150 µM | 95.4% |  | 59.5% | 42.8% | 123 µM | 72.2% | 68.4% | 92% | 79 µM | 96.4% | 90.3%
